According to patent US20260034094A1, “COMPOSITIONS AND METHODS FOR INDUCING FERROPTOSIS” (Kojin Therapeutics, Inc., priority 2022, published 2026):
pEC50, pIC50: −log10 of the molar value.

Tests used:
human recombinant GCL = human recombinant GCL (Homo sapiens (Human), UniProt P48506); test: GCL enzyme profiling assay (ADP-Glo luminescence); assay type: biochemical; details: human recombinant GCL, ADP-Glo; read-out: GCL IC50
Summary of the method: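 IC50 fitted by four-parameter logistic to luminescent ADP formation (ADP-Glo). Reaction at room temperature in HEPES pH 7.5 with 30 mM MgCl2, 0.2% F-127, 1% DMSO; 5 nM GCL and 0.6 mM ATP preincubated 1 h before adding 1 mM glutamate plus 1.2 mM α-aminobutyrate for 2 h.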

RKN cells = test: RKN cell profiling assay (cell viability, CellTiter-Glo); assay type: cell-based; details: cell viability, read-out: Cell Killing EC50
Summary of the method: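 Viability read by CellTiter-Glo luminescence after 96 h compound exposure (0.5% DMSO final) of cells plated at 1,000/well in 10% FBS F-12 and allowed 24 h attachment. Four-parameter fits gave EC50; rescue arms used ferrostatin-1, 1.5 μM, present from seeding.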

Sequence of human recombinant GCL (P48506 whole entry): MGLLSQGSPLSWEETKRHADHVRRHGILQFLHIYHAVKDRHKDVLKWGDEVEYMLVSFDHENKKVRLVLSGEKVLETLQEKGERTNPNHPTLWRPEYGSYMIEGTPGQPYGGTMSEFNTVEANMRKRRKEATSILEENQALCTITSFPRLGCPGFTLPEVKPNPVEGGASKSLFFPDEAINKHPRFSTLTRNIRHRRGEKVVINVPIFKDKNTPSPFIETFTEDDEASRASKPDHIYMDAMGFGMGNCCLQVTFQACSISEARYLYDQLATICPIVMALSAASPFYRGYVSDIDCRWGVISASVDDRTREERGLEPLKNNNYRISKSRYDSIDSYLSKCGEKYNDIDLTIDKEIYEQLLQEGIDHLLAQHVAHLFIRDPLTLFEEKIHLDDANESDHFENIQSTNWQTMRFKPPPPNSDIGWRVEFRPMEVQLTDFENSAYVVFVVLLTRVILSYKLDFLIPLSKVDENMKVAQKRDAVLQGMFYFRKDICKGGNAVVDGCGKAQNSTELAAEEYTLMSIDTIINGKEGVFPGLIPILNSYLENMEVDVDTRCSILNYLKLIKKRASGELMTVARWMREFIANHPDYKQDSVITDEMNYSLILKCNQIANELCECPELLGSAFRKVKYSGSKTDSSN

Row | pIC50 (human recombinant GCL) | Compound | pEC50 (RKN cells)
1 | ≥ 4.70 | CC(CCS(=N)(=O)CC[C@H](N)C(=O)O)(c1ccccc1)C(F)(F)F (some centres unmarked) [Compound 293] | ≤ 3.00
2 | ≥ 4.70 | N=S(=O)(CC[C@H](N)C(=O)O)CCC12CC(C1)C2 (some centres unmarked) [Compound 294] | > 3.00
3 | 2.70 to 4.70 | COC(C)(C)CCCS(=N)(=O)CC[C@H](N)C(=O)O (some centres unmarked) [Compound 295] | ≤ 3.00
4 | ≥ 4.70 | N=S(=O)(CC[C@H](N)C(=O)O)CCC1(C(F)(F)F)CCC1 (some centres unmarked) [Compound 296] | > 3.00
5 | 2.70 to 4.70 | N=S(=O)(CC[C@H](N)C(=O)O)CCC1(O)CCCCC1 (some centres unmarked) [Compound 297] | ≤ 3.00
6 | 2.70 to 4.70 | C#CC(C)(C)CCS(=N)(=O)CC[C@H](N)C(=O)O (some centres unmarked) [Compound 299] | > 3.00
7 | 2.70 to 4.70 | CC1(CCS(=N)(=O)CC[C@H](N)C(=O)O)CCCCC1 (some centres unmarked) [Compound 300] | ≤ 3.00
8 | ≥ 4.70 | N=S(=O)(CC[C@H](N)C(=O)O)CCC(O)(C(F)(F)F)C(F)(F)F (some centres unmarked) [Compound 301] | > 3.00
9 | 2.70 to 4.70 | N=S(=O)(CC[C@H](N)C(=O)O)CCC1(O)[C@H]2C[C@@H]3C[C@@H](C[C@H]1C3)C2 (some centres unmarked) [Compound 302] | ≤ 3.00
10 | 2.70 to 4.70 | N=S(=O)(CC[C@H](N)C(=O)O)CCC1(O)CC(F)(F)C1 (some centres unmarked) [Compound 303] | > 3.00
11 | ≥ 4.70 | COC(=O)C(CCS(=N)(=O)CC[C@H](N)C(=O)O)C(F)(F)F (some centres unmarked) [Compound 305] | ≤ 3.00
12 | ≥ 4.70 | N=S(=O)(CCC(C(=O)O)C(F)(F)F)CC[C@H](N)C(=O)O (some centres unmarked) [Compound 306] | > 3.00
13 | 2.70 to 4.70 | CNC(=O)C(CCS(=N)(=O)CC[C@H](N)C(=O)O)C(F)(F)F (some centres unmarked) [Compound 307] | > 3.00
14 | 2.70 to 4.70 | N=S(=O)(CCC(C(N)=O)C(F)(F)F)CC[C@H](N)C(=O)O (some centres unmarked) [Compound 308] | > 3.00
15 | ≥ 4.70 | N=S(=O)(CCC(c1ccccc1Cl)C(F)(F)F)CC[C@H](N)C(=O)O (some centres unmarked) [Compound 309] | > 3.00
16 | ≥ 4.70 | N=S(=O)(CCC(c1ccc2ccccc2c1)C(F)(F)F)CC[C@H](N)C(=O)O (some centres unmarked) [Compound 310] | > 3.00
17 | 2.70 to 4.70 | CC1(CCCS(=N)(=O)CC[C@H](N)C(=O)O)COC1 (some centres unmarked) [Compound 312] | > 3.00
18 | 2.70 to 4.70 | COCC(CCS(=N)(=O)CC[C@H](N)C(=O)O)C(F)(F)F (some centres unmarked) [Compound 319] | > 3.00
19 | 2.70 to 4.70 | COCC(C)(C)CCS(=N)(=O)CC[C@H](N)C(=O)O (some centres unmarked) [Compound 321] | > 3.00
20 | ≥ 4.70 | N=S(=O)(CC[C@H](N)C(=O)O)CCC(O)(c1ccc(OC(F)(F)F)cc1)C(F)(F)F (stereo partly drawn) [Compound 330, (2S)-2-amino-4-(4,4,4-trifluoro-3-hydroxy-3-(4-(trifluoromethoxy)phenyl)butylsulfonimidoyl)butanoic acid] | ≤ 3.00

Row | pIC50 (human recombinant GCL) | Compound | pEC50 (RKN cells)
21 | ≥ 4.70 | N=S(=O)(CC[C@H](N)C(=O)O)CCC(O)(c1cc2ccccc2cn1)C(F)(F)F (stereo partly drawn) [Compound 331, (2S)-2-amino-4-(4,4,4-trifluoro-3-hydroxy-3-(isoquinolin-3-yl)butylsulfonimidoyl)butanoic acid] | > 3.00
22 | 2.70 to 4.70 | N[C@@H](CCS(=O)(=O)CCC(O)(c1cc2ccccc2cn1)C(F)(F)F)C(=O)O (stereo partly drawn) [Compound 332, (2S)-2-amino-4-((4,4,4-trifluoro-3-hydroxy-3-(isoquinolin-3-yl)butyl)sulfonyl)butanoic acid] | ≤ 3.00
23 | 2.70 to 4.70 | N=S(=O)(CC[C@H](N)C(=O)O)CCC(O)(C(=O)O)C(F)(F)F (some centres unmarked) [Compound 333] | ≤ 3.00
24 | ≥ 4.70 | N=S(=O)(CC[C@H](N)C(=O)O)CCC(O)(c1ccc(Oc2ccccc2)cc1)C(F)(F)F (some centres unmarked) [Compound 334] | > 3.00
25 | 2.70 to 4.70 | N=S(=O)(CCCC(O)(c1ccc(-c2ccccc2)cc1)C(F)(F)F)CC[C@H](N)C(=O)O (some centres unmarked) [Compound 335] | ≤ 3.00
26 | ≥ 4.70 | N=S(=O)(CC[C@H](N)C(=O)O)CCC(O)(c1ccc(C(F)(F)F)cc1)C(F)(F)F (some centres unmarked) [Compound 338] | ≤ 3.00
27 | 2.70 to 4.70 | N=S(=O)(CC[C@H](N)C(=O)O)CCC(O)(c1nc2ccccc2[nH]1)C(F)(F)F (some centres unmarked) [Compound 343] | > 3.00
28 | ≥ 4.70 | N=S(=O)(CC[C@H](N)C(=O)O)CCC(O)(c1nccs1)C(F)(F)F (some centres unmarked) [Compound 344] | > 3.00
29 | ≥ 4.70 | N=[S@@](=O)(CC[C@H](N)C(=O)O)CC[C@@](O)(c1ccccc1)C(F)(F)F [Compound 347, (S)-2-amino-4-((R,3R)-4,4,4-trifluoro-3-hydroxy-3-phenylbutylsulfonimidoyl)butanoic acid] | > 3.00
30 | ≥ 4.70 | N=[S@@](=O)(CC[C@H](N)C(=O)O)CC[C@](O)(c1ccccc1)C(F)(F)F [Compound 348, (S)-2-amino-4-((R,3S)-4,4,4-trifluoro-3-hydroxy-3-phenylbutylsulfonimidoyl)butanoic acid] | > 3.00
31 | 2.70 to 4.70 | N=S(=O)(CC[C@H](N)C(=O)O)CCC(O)(C1CC1)C(F)(F)F (stereo partly drawn) [Compound 349, (2S)-2-amino-4-(3-cyclopropyl-4,4,4-trifluoro-3-hydroxybutylsulfonimidoyl)butanoic acid] | > 3.00
32 | ≥ 4.70 | N=S(=O)(CC[C@H](N)C(=O)O)CCC(O)(c1ccccn1)C(F)(F)F (stereo partly drawn) [Compound 350, (2S)-2-amino-4-(4,4,4-trifluoro-3-hydroxy-3-(pyridin-2-yl)butylsulfonimidoyl)butanoic acid] | > 3.00
33 | ≥ 4.70 | N[C@@H](CCS(=O)(=O)CCC(O)(c1ccccn1)C(F)(F)F)C(=O)O (stereo partly drawn) [Compound 351, (2S)-2-amino-4-((4,4,4-trifluoro-3-hydroxy-3-(pyridin-2-yl)butyl)sulfonyl)butanoic acid] | ≤ 3.00
34 | 2.70 to 4.70 | CCC(O)(CCS(=N)(=O)CC[C@H](N)C(=O)O)C(F)(F)F (some centres unmarked) [Compound 352] | > 3.00
35 | ≥ 4.70 | CC(C)C(O)(CCS(=N)(=O)CC[C@H](N)C(=O)O)C(F)(F)F (some centres unmarked) [Compound 353] | ≤ 3.00
36 | 2.70 to 4.70 | N=S(=O)(CC[C@H](N)C(=O)O)CCC(O)(Cc1ccccc1)C(F)(F)F (some centres unmarked) [Compound 354] | ≤ 3.00
37 | 2.70 to 4.70 | N=S(=O)(CC[C@H](N)C(=O)O)CCC(O)(C1CCCCC1)C(F)(F)F (some centres unmarked) [Compound 355] | ≤ 3.00
38 | 2.70 to 4.70 | N=S(=O)(CC[C@H](N)C(=O)O)CCC(O)(C1CCCC1)C(F)(F)F (some centres unmarked) [Compound 356] | ≤ 3.00
39 | ≥ 4.70 | N=S(=O)(CC[C@H](N)C(=O)O)CCC(O)(C1CCC1)C(F)(F)F (some centres unmarked) [Compound 357] | ≤ 3.00
40 | ≥ 4.70 | N=S(=O)(CC[C@H](N)C(=O)O)CCC(O)(c1ncc(-c2ccccc2)[nH]1)C(F)(F)F (some centres unmarked) [Compound 358] | > 3.00

Row | pIC50 (human recombinant GCL) | Compound | pEC50 (RKN cells)
41 | 2.70 to 4.70 | N=S(=O)(CC[C@H](N)C(=O)O)CCC(O)(C(F)(F)F)C12CC(C1)C2 (some centres unmarked) [Compound 359] | ≤ 3.00
42 | ≥ 4.70 | N=S(=O)(CC[C@H](N)C(=O)O)CCC(O)(c1cc2cc[nH]c2cn1)C(F)(F)F (some centres unmarked) [Compound 360] | > 3.00
43 | 2.70 to 4.70 | N=S(=O)(CC[C@H](N)C(=O)O)CCC(O)(c1cccnc1)C(F)(F)F (some centres unmarked) [Compound 361] | ≤ 3.00
44 | 2.70 to 4.70 | N=S(=O)(CC[C@H](N)C(=O)O)CCC(O)(c1ccncc1)C(F)(F)F (some centres unmarked) [Compound 362] | ≤ 3.00
45 | 2.70 to 4.70 | N=S(=O)(CC[C@H](N)C(=O)O)CCC(O)(c1ncccn1)C(F)(F)F (some centres unmarked) [Compound 363] | > 3.00
46 | 2.70 to 4.70 | N=S(=O)(CC[C@H](N)C(=O)O)CCC(O)(c1ccnc(C(F)(F)F)c1)C(F)(F)F (some centres unmarked) [Compound 364] | ≤ 3.00
47 | 2.70 to 4.70 | N=S(=O)(CC[C@H](N)C(=O)O)CCC(O)(c1ccc(C(F)(F)F)nc1)C(F)(F)F (some centres unmarked) [Compound 365] | ≤ 3.00
48 | 2.70 to 4.70 | N=S(=O)(CC[C@H](N)C(=O)O)CCC(O)(c1ccon1)C(F)(F)F (some centres unmarked) [Compound 368] | > 3.00
49 | 2.70 to 4.70 | N[C@@H](CCS(=O)(=O)CCC(O)(c1ccon1)C(F)(F)F)C(=O)O (some centres unmarked) [Compound 369] | ≤ 3.00
50 | ≥ 4.70 | N=S(=O)(CC[C@H](N)C(=O)O)CCC(O)(c1ccsn1)C(F)(F)F (some centres unmarked) [Compound 370] | > 3.00
51 | ≥ 4.70 | N[C@@H](CCS(=O)(=O)CCC(O)(c1ccsn1)C(F)(F)F)C(=O)O (some centres unmarked) [Compound 371] | > 3.00
52 | ≥ 4.70 | N=S(=O)(CC[C@H](N)C(=O)O)CCC(O)(c1ccc(Oc2ccccc2)cn1)C(F)(F)F (some centres unmarked) [Compound 372] | > 3.00
53 | 2.70 to 4.70 | N=S(=O)(CC[C@H](N)C(=O)O)CCC(O)(c1ncc2ccccc2n1)C(F)(F)F (some centres unmarked) [Compound 374] | > 3.00
54 | ≥ 4.70 | N=S(=O)(CC[C@H](N)C(=O)O)CCC(O)(c1nsc2ccccc12)C(F)(F)F (some centres unmarked) [Compound 375] | > 3.00
55 | ≥ 4.70 | N=S(=O)(CC[C@H](N)C(=O)O)CCC(O)(c1cc(-c2ccccc2)sn1)C(F)(F)F (some centres unmarked) [Compound 376] | > 3.00
56 | ≥ 4.70 | N[C@@H](CCS(=O)(=O)CCC(O)(c1cc(-c2ccccc2)sn1)C(F)(F)F)C(=O)O (some centres unmarked) [Compound 377] | ≤ 3.00
57 | ≥ 4.70 | N=S(=O)(CC[C@H](N)C(=O)O)CCC(O)(c1cc(-c2ccccc2)on1)C(F)(F)F (some centres unmarked) [Compound 378] | > 3.00
58 | ≥ 4.70 | N=S(=O)(CC[C@H](N)C(=O)O)CCC(O)(C1CCN(c2ccc(Cl)cc2Cl)CC1)C(F)(F)F (some centres unmarked) [Compound 379] | > 3.00
